Measurements: patent US20120028930A1, “FLUPIRTINE SALTS AND POLYMORPHS” (Bionevia Pharmaceuticals Inc., priority 2010, published 2012)
Structures can show the parent of a compound that is named as a salt.

Legend:
dissolution rate = assay type: physicochemical
[1] = cited from earlier work
[2] = stability towards oxidation and discoloration on storage exposed to air; conditions: storage period of 30 days at room temperature, in contrast to other acid addition salts, e.g. maleate and gluconate
Description: HPLC can be performed after preparation of the salts and repeated after 14 days of storage at room temperature under normal air containing about 21% oxygen.
HPLC analysis can be performed after isolation and drying of flupirtine sulfonate salts and repeated after 14 days of storage at room temperature under open air.
Discolouration can be measured using optical comparison with a standard: the RAL scale of colours (see list). The colour changes during the experiment is compared to this standard list and the appropriate value is noted. The intensity is increasing on a scale ranging from 1 to 10. A higher number means more discolouration. The increase in colour intensity is not proportional but qualitative.

SMILES | dissolution rate (dissolution rate) | solubility in water [1] | stability towards oxidation and towards discoloration [2]
CCOC(=O)Nc1ccc(NCc2ccc(F)cc2)nc1N [flupirtine maleate] | 0.088 [μg/mL]/min | insoluble | 
CCOC(=O)Nc1ccc(NCc2ccc(F)cc2)nc1N.CS(=O)(=O)O [flupirtine mesylate, 2-amino-3-carbethoxyamino-6-(4-fluoro-benzylamino)-pyridine mesylate] |  |  | substantially improved stability
CCC(=O)O.CCOC(=O)Nc1ccc(NCc2ccc(F)cc2)nc1N [flupirtine propionate, 2-amino-3-carbethoxyamino-6-(4-fluoro-benzylamino)-pyridine propionate] |  |  | substantially improved stability
CC(=O)O.CCOC(=O)Nc1ccc(NCc2ccc(F)cc2)nc1N [flupirtine acetate, 2-amino-3-carbethoxyamino-6-(4-fluoro-benzylamino)-pyridine acetate] |  |  | substantially improved stability
